Values joined by “and” are separate entries in the source; they are usually repeats but may differ in a detail not shown here. Equal values may be shown once.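 Where inhibition never reached the appropriate level, the endpoint shown equals the highest concentration tested. Otherwise, values were interpolated linearly from a five-concentration, 48-hour dose response in 96-well plates. GI50: concentration for 50% inhibition of growth. TGI marks complete inhibition of growth.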
How the values were obtained:
Experiment in all cases: growth of human tumour cells (NCI), 48 h
[1] = tested on: BT-549 breast
[2] = tested on: NCI-H460 lung
[3] = tested on: NCI-H226 lung
[4] = tested on: SK-OV-3 ovarian
[5] = tested on: SF-295 CNS
[6] = tested on: ACHN renal
[7] = tested on: COLO 205 colon
[8] = tested on: UO-31 renal
[9] = tested on: OVCAR-8 ovarian
[10] = tested on: K-562 leukemia
[11] = tested on: HCT-15 colon
[12] = tested on: UACC-62 melanoma
[13] = tested on: HT29 colon
[14] = tested on: CAKI-1 renal
[15] = tested on: DU-145 prostate
[16] = tested on: MALME-3M melanoma
[17] = tested on: SNB-19 CNS
[18] = tested on: OVCAR-5 ovarian
[19] = tested on: HS 578T breast
[20] = tested on: SF-539 CNS
[21] = tested on: T-47D breast
[22] = tested on: SK-MEL-2 melanoma
[23] = tested on: MDA-N
[24] = tested on: UACC-257 melanoma
[25] = tested on: NCI-H23 lung
[26] = tested on: HCT-116 colon
[27] = tested on: A498 renal
[28] = tested on: LOX IMVI melanoma
[29] = tested on: RXF 393 renal
[30] = tested on: SK-MEL-5 melanoma
[31] = tested on: A549 NSCLC
[32] = tested on: HOP-62 NSCLC
[33] = tested on: SR leukemia
[34] = tested on: NCI-H522 lung
[35] = tested on: M14 melanoma
[36] = tested on: MCF7 breast
[37] = tested on: SW-620 colon
[38] = tested on: 786-0 renal
[39] = tested on: HL-60(TB) leukemia
[40] = tested on: SN12C renal
[41] = tested on: MOLT-4 leukemia
[42] = tested on: NCI/ADR-RES ovarian
[43] = tested on: KM12 colon
[44] = tested on: CCRF-CEM leukemia
[45] = tested on: TK-10 renal
[46] = tested on: OVCAR-3 ovarian
[47] = tested on: HOP-92 NSCLC
[48] = tested on: PC-3 prostate
[49] = tested on: SK-MEL-28 melanoma
[50] = tested on: IGROV1 ovarian
[51] = tested on: OVCAR-4 ovarian
[52] = tested on: SNB-75 CNS
[53] = tested on: MDA-MB-231 breast
[54] = tested on: EKVX NSCLC
[55] = tested on: RPMI-8226 leukemia
[56] = tested on: MDA-MB-435
[57] = tested on: SF-268 CNS
[58] = tested on: U251 CNS
[59] = tested on: HCC-2998 colon
[60] = tested on: KM20L2 colon
[61] = tested on: DMS 114 small cell lung
[62] = tested on: DMS 273 small cell lung
[63] = tested on: XF 498 CNS
[64] = tested on: M19-MEL melanoma
[65] = tested on: DLD-1 colon
[66] = tested on: LXFL 529 NSCLC
[67] = tested on: HOP-18 NSCLC

For `COc1cc2cc(C(=O)N3CC(CCl)c4c3cc(NC(=O)C(C)(C)c3ccccc3[N+](=O)[O-])c3ccccc43)[nH]c2c(OC)c1OC` (centres undefined), the GI50 [1] was 26.1 µM, the TGI [1] was 30.4 µM and 213 µM and the GI50 [2] was 825 nM. For the same compound, the TGI [2] was 1.64 µM and 15.5 µM, the GI50 [3] was 118 µM and the TGI [3] was 50 µM and 281 µM. It also gave a GI50 [4] of 70 µM, a GI50 [5] of 19.2 µM and a GI50 [6] of 2630 nM. The GI50 [7] was 204 µM, the GI50 [8] was 26.2 µM and the GI50 [9] was 6.58 µM. For the same compound, the GI50 [10] was 17.9 µM, the GI50 [11] was 13.2 µM and the GI50 [12] was 25.4 µM. For the same compound, the GI50 [13] was 14.5 µM, the TGI [13] was 50 µM and 203 µM and the GI50 [14] was 78.5 µM. For the same compound, the TGI [15] was 28.2 µM, the GI50 [16] was 103 µM and the GI50 [17] was 303 µM. The GI50 [18] was 119 µM, the GI50 [19] was 270 µM and the GI50 [20] was 6.55 µM. For the same compound, the TGI [20] was 14.5 µM and 74.9 µM, the GI50 [21] was 61.5 µM and the GI50 [22] was 110 µM. The GI50 [23] was 76.7 µM, the GI50 [24] was 18.9 µM and the TGI [24] was 14.1 µM and 75.6 µM. For the same compound, the GI50 [25] was 8.67 µM, the TGI [26] was > 600 µM and the GI50 [27] was 59.1 µM. For the same compound, the TGI [28] was 6.86 µM, the GI50 [29] was 6.25 µM and the TGI [29] was 5.9 µM and 19.9 µM. For the same compound, the GI50 [30] was 11.3 µM, the TGI [30] was 7.81 µM and 35.1 µM and the TGI [31] was > 600 µM. The TGI [32] was 0.862 µM, the TGI [33] was > 600 µM and the GI50 [34] was 38.4 µM. The GI50 [35] was 6.24 µM, the TGI [35] was 9.11 µM and 33.2 µM and the GI50 [36] was 16.1 µM. For the same compound, the GI50 [37] was 16.9 µM, the TGI [38] was > 600 µM and the GI50 [39] was 37.1 µM. It also gave a GI50 [40] of 146 µM, a GI50 [41] of 33.7 µM and a GI50 [42] of 11.3 µM. For the same compound, the GI50 [43] was 48.2 µM, the GI50 [44] was 51.2 µM and the GI50 [45] was 18.3 µM. The TGI [46] was 222 µM, the GI50 [47] was 222 µM and the GI50 [48] was 19.4 µM. For the same compound, the TGI [48] was 35.9 µM and 206 µM, the GI50 [49] was 86.7 µM and the GI50 [50] was 89.6 µM. For the same compound, the GI50 [51] was 62.1 µM, the GI50 [52] was 61.7 µM and the GI50 [53] was > 600 µM. The GI50 [54] was 127 µM, the TGI [55] was > 600 µM and the GI50 [56] was 91.7 µM. The GI50 [57] was 19.5 µM, the TGI [58] was > 600 µM and the TGI [59] was 33.2 µM.
With `COc1ccc(/C=C/c2cc(OC)c(OC)c(OC)c2)cc1O` the TGI [1] was 40.7 µM, the TGI [4] was 39.9 µM and the TGI [7] was 54.3 µM. It also gave a TGI [8] of 21 µM, a TGI [13] of 24 µM and a TGI [15] of 38.9 µM. The TGI [18] was 79.5 µM, the TGI [21] was 45.7 µM and the TGI [38] was 15.3 µM. It also gave a TGI [60] of 25.1 µM, a TGI [45] of 75.1 µM and a TGI [51] of 71.5 µM. The TGI [54] was 59.3 µM and the TGI [59] was 36.9 µM.
In the case of `O=C(NO)c1ccc([N+](=O)[O-])cc1`, the TGI [2] is reported as > 100 µM, the TGI [3] is reported as > 100 µM and the TGI [4] is reported as > 100 µM. For the same compound, the TGI [5] was > 100 µM, the TGI [61] was > 100 µM and the TGI [7] was 94 µM. The TGI [8] was > 100 µM, the TGI [9] was > 100 µM and the TGI [10] was > 100 µM. For the same compound, the TGI [11] was > 100 µM, the TGI [62] was > 100 µM and the TGI [12] was 50.5 µM. The TGI [13] was > 100 µM, the TGI [14] was > 100 µM and the TGI [16] was > 100 µM. The TGI [17] was > 100 µM, the TGI [63] was > 100 µM and the TGI [20] was > 100 µM. The TGI [22] was > 100 µM, the TGI [24] was > 100 µM and the TGI [25] was > 100 µM. The TGI [27] was 85.4 µM, the TGI [28] was > 100 µM and the TGI [29] was 71.8 µM. The TGI [64] was > 100 µM, the TGI [30] was > 100 µM and the TGI [31] was > 100 µM. The TGI [32] was > 100 µM, the TGI [34] was 97.2 µM and the TGI [35] was > 100 µM. The TGI [37] was > 100 µM, the TGI [65] was > 100 µM and the TGI [38] was > 100 µM. The TGI [39] was 50.9 µM, the TGI [40] was > 100 µM and the TGI [41] was > 100 µM. The TGI [60] was > 100 µM, the TGI [43] was > 100 µM and the TGI [44] was > 100 µM. For the same compound, the TGI [66] was 83.8 µM, the TGI [45] was > 100 µM and the TGI [46] was > 100 µM. For the same compound, the TGI [49] was > 100 µM, the TGI [50] was > 100 µM and the TGI [52] was 93.8 µM. The TGI [54] was > 100 µM, the TGI [55] was > 100 µM and the TGI [57] was > 100 µM. The TGI [58] was > 100 µM and the TGI [59] was > 100 µM.
For `Cc1ccc2c(c1)C1(C)OC(CC(N)C1O)O2` (centres undefined), the TGI [2] was > 100 µM, the TGI [3] was > 100 µM and the TGI [4] was > 100 µM. The TGI [5] was > 100 µM, the TGI [61] was > 100 µM and the TGI [6] was > 100 µM. For the same compound, the TGI [7] was > 100 µM, the TGI [8] was > 100 µM and the TGI [9] was > 100 µM. The TGI [10] was > 100 µM, the TGI [11] was > 100 µM and the TGI [62] was > 100 µM. The TGI [12] was > 100 µM, the TGI [13] was > 100 µM and the TGI [16] was > 100 µM. For the same compound, the TGI [17] was > 100 µM, the TGI [20] was > 100 µM and the TGI [22] was > 100 µM. The TGI [24] was > 100 µM, the TGI [25] was > 100 µM and the TGI [26] was > 100 µM. For the same compound, the TGI [28] was > 100 µM, the TGI [29] was > 100 µM and the TGI [64] was > 100 µM. For the same compound, the TGI [30] was > 100 µM, the TGI [31] was > 100 µM and the TGI [32] was > 100 µM. The TGI [34] was > 100 µM, the TGI [35] was > 100 µM and the TGI [37] was > 100 µM. For the same compound, the TGI [65] was > 100 µM, the TGI [38] was > 100 µM and the TGI [39] was > 100 µM. The TGI [40] was > 100 µM, the TGI [41] was > 100 µM and the TGI [43] was > 100 µM. The TGI [44] was > 100 µM, the TGI [45] was > 100 µM and the TGI [46] was > 100 µM. For the same compound, the TGI [67] was > 100 µM, the TGI [49] was > 100 µM and the TGI [50] was > 100 µM. For the same compound, the TGI [52] was > 100 µM, the TGI [54] was > 100 µM and the TGI [55] was > 100 µM. The TGI [58] was > 100 µM.
